This is an account of results in patent publication US10611766B2, “Pyrazolopyrimidine derivatives as BTK inhibitors for the treatment of cancer” (Loxo Oncology, Inc., priority 2015, dated 2020).

The test system of this test is OCI-Ly10 human DLBCL cells. As to the kind of experiment: OCI-Ly10 anti-proliferative activity (Resazurin, 72 h). In kind it is cell-based. The note with it: read-out: Proliferation OCI-Ly10-IC50. Here is the method: Compounds were assayed for effects on the growth of OCI-Ly10 human DLBCL cells that are dependent on NFκB signalling. OCI-Ly10 cells were grown in suspension in T225 flasks, centrifuged and re-suspended in 2.5% FBS containing media. Cells were then plated at 7.5×10^3 cells per well in 96-well plates in varying concentrations of compound and incubated for 72 h at 37° C. An additional plate of cells to be used as the Day 0 read was seeded without compound addition, Resazurin was added to each well, incubated for 5 h and the fluorescence measured at 590 nm. After 72 h of compound treatment, Resazurin was added to each well of the compound treated plates, incubated for 5 h and the fluorescence measured at 590 nm. The IC50 was then calculated by subtracting the average Day 0 value from each well value from the treated plates, each treatment was then calculated as a percentage of the DMSO control and the percentages plotted against the inhibitor concentration to estimate the IC50 from log [Inhibitor] vs response using the Variable Slope model in Graphpad prism from Graphpad software (SanDiego, Calif.).
(The colour change of resazurin is a common sign of viable cells or microbes.)

Consider `COc1ccccc1C(=O)NCc1ccc(-c2nn(C3CCC(C(=O)N(C)C)CC3)c3ncnc(N)c23)cc1` (single isomer, unassigned; isomer 1) [33-isomer 1], for which the IC50 lay within 10 to 100 nM.
